Measured values: patent US9895377B2, “Solid forms of tyrosine kinase inhibitors, process for the preparation and their pharmaceutical composition thereof” (LAURUS LABS LIMITED, priority 2012, dated 2018)

Test: delta pKa difference between tyrosine kinase inhibitor and anti-oxidative acids
Format: physicochemical
Conditions: between the tyrosine kinase inhibitor and anti-oxidative acids; more than 3 = salt, less than 3 = co-crystal (FDA draft guidelines)

## Cc1ccc(NC(=O)c2ccc(CN3CCN(C)CC3)cc2)cc1Nc1nccc(-c2cccnc2)n1 [imatinib, Imatinib]
  delta pKa difference: more than 3

## COc1cc2ncnc(Nc3ccc(F)c(Cl)c3)c2cc1OCCCN1CCOCC1 [gefitinib, Gefitinib]
  delta pKa difference: less than 3
